Values of other authors, collected in patent publication US20080176893A1, “Formulation of a Thienopyridine Platelet Aggregation Inhibitor” (ELI LILLY AND COMPANY, priority 2005, published 2008).

CC(=O)Oc1cc2c(s1)CCN(C(C(=O)C1CC1)c1ccccc1F)C2.Cl (stereo not drawn) [Prasugrel, 2-Acetoxy-5-(α-cycloprpylcarbonyl-2-fluorobenzyl)-4,5,6,7-tetrahydrothieno[3,2-c]pyridine]
degradation on prolonged exposure to air and moisture: some degradation
